Measurements published in paper PMC11435065, “Inhibition of P-Glycoprotein Asymmetrically Alters the In Vivo Exposure Profile of SGC003F: A Novel Guanylate Cyclase Stimulator” (Pharmaceuticals, 2024).
Values joined by “and” are separate entries in the source; they are usually repeats but may differ in a detail not shown here. Identical values can stand only once. Like-named read-outs stand apart in the source and are kept apart here.

Columns and labels:
[1] = In vitro metabolic stability in rat liver microsomes; format: in vitro ADME; details: 1 µM, up to 60 min, NADPH or UDPGA
Method: (§1) In vitro incubation dependent on NADPH: SGC003F was added into rat and human liver microsomes diluted in PBS (100 mM, pH 7.3). NADPH was introduced into the system. The NADPH had been pre-equilibrated under the same conditions for 5 min to initiate the enzymatic reaction. The incubation mixture was meticulously prepared to achieve the following final concentrations: 1 µM for SGC003F, 0.5 mg/mL for the liver microsomal protein, and 1 mM for NADPH.
(§2) In vitro incubation dependent on UDPGA: rat and human liver microsomes diluted in PBS (100 mM, pH 7.3) were mixed with alamethicin and then placed on ice for 15 min before the addition of the working solution of SGC003F. After preincubation in a water bath at 37 °C for 5 min, UDPGA, which had been preincubated for 5 min was added to initiate the reaction. The final concentrations in the incubation system were as follows: 1 μM for SGC003F, 0.5 mg/mL for liver microsomal protein concentration, 5 mM for UDPGA, and 25 μg/mL for alamethicin.
(§3) Positive probe substrate assays were utilized to ensure normal activity of the incubation system. […] Finally, 60 μL supernatant was taken and diluted with 60 μL of 50% acetonitrile before being analyzed by LC-MS/MS.

[2] = In vitro metabolic stability in human liver microsomes; format: in vitro ADME; details: 1 µM, up to 60 min, NADPH or UDPGA
Method: as §1, §2, §3

[3] = Urinary and fecal cumulative excretion of SGC003F in rats with or without tariquidar; format: in vivo; details: rat, SGC003F p.o. 1 mg/kg; for dose excreted: male, SD, urine and faeces
Method: In total, 18 male SD rats were randomly divided into three groups, with 6 rats in each group. Group I: SGC003F (p.o., 1 mg/kg) + blank vehicle (control group); Group Ⅱ: SGC003F (p.o., 1 mg/kg) + tariquidar (i.v., 7.5 mg/kg); Group III: SGC003F (p.o., 1 mg/kg) + tariquidar (p.o., 15 mg/kg). The rats were fasted for 12 h before oral administration. After administration, the rats were placed immediately in a metabolic cage and resumed feeding for 2 h. Urine and fecal samples were collected at 0–4, 4–8, 8–12, 12–24, 24–36, 36–48, 48–72, 72–96, and 96–120 h after administration. Fecal samples were homogenized with acetonitrile at a ratio of 1:4 (w/v) and stored at −40 °C for analysis.

[4] = Tissue distribution of SGC003F in rats with or without tariquidar; format: in vivo; details: male, SD, rat, SGC003F p.o. 1 mg/kg
Method: A total of 45 male SD rats were randomly divided into 15 groups, with 3 rats in each group; each set of 5 groups constituted a larger group. The first large group served as the control group: SGC003F (p.o., 1 mg/kg) + blank solvent; the second large group was designated as experimental Group I: SGC003F (p.o., 1 mg/kg) + tariquidar (i.v., 7.5 mg/kg); the third group was labeled as Group II: SGC003F (p.o., 1 mg/kg) + tariquidar (p.o., 15 mg/kg). The rats in each group were euthanized at 0.5 h, 1 h, 2 h, 4 h, and 24 h after administration. Blood samples were collected by cardiac puncture and placed in heparin tubes. The plasma was harvested by centrifugation at 2500× g for 10 min at 4 °C. Major organs (brain, heart, liver, kidney, and small intestine) were collected and homogenized with saline at a ratio of 1:4 (w/v). All samples were stored at −40 °C for further analysis.
The tissue plasma partition coefficient at individual time point (KP1) was calculated by the ratio of the tissue concentration to the plasma concentration at each time point, as described in Equation (3) KP1 = Ctissue/Cplasma(3)
The overall tissue plasma partition coefficient (KP2) was calculated by the ratio of the area under the tissue drug-time curve to the area under the plasma drug–time curve, as described in Equation (4) KP2 = AUC(0-t, tissue)/AUC(0-t, plasma)(4)

[5] = single, within 120 h, parent drug
[6] = tariquidar i.v. 7.5 mg/kg, 120 h
[7] = tariquidar p.o. 15 mg/kg, 120 h
[8] = with tariquidar i.v. 7.5 mg/kg, 120 h
[9] = with tariquidar p.o. 15 mg/kg, 120 h

Q: Which “Metabolic stability (percentage of drug remaining over time)” value [1] does the source give for COC(=O)Nc1c(N)nc(-c2nn(Cc3sccc3F)c3ncc(F)cc23)nc1N [SGC003F] here?
A: no significant metabolic elimination

Q: What about the “Metabolic stability (percentage of drug remaining over time)” value [2] of the same compound?
A: no significant metabolic elimination

Q: And the dose excreted ([3]; oral, with tariquidar i.v. 7.5 mg/kg, 120 h, read-out: U + F (total urinary and fecal recovery))?
A: 37.9 ± 5.99%

Q: What about the dose excreted ([3]; oral, with tariquidar p.o. 15 mg/kg, 120 h, read-out: U + F (total urinary and fecal recovery)) of the same compound?
A: 36.7 ± 3.36%

Q: And the dose excreted ([3]; po, 1 mg/kg, single, within 120 h, read-out: U + F (total urinary and fecal recovery of parent drug))?
A: 71.5 ± 15.1%

Q: What about the “Total cumulative urinary and fecal excretion relative to control group” value ([3]; after co-administration of tariquidar) of the same compound?
A: 50%

Q: What about the “F (cumulative fecal excretion)” value [3, 5] of the same compound?
A: 59.5 ± 14.4%

Q: And the “U (cumulative urinary excretion)” value [3, 5]?
A: 11.9 ± 1.36%

Q: What about the “F (fecal), Ratio 1 (with Tar (i.v.)/single)” value [3, 6] of the same compound?
A: 0.32

Q: What about the “U + F, Ratio 1 (with Tar (i.v.)/single)” value [3, 6] of the same compound?
A: 0.53

Q: What about the “U, Ratio 1 (with Tar (i.v.)/single)” value [3, 6] of the same compound?
A: 1.56

Q: And the “F (fecal), Ratio 2 (with Tar (p.o.)/single)” value [3, 7]?
A: 0.19

Q: And the “U + F, Ratio 2 (with Tar (p.o.)/single)” value [3, 7]?
A: 0.51

Q: And the “U, Ratio 2 (with Tar (p.o.)/single)” value [3, 7]?
A: 2.13

Q: And the “F (cumulative fecal excretion)” value [3, 8]?
A: 19.3% and 19.3 ± 2.31 %

Q: What about the “U (cumulative urinary excretion)” value [3, 8] of the same compound?
A: 18.6% and 18.6 ± 4.37%

Q: And the “F (cumulative fecal excretion)” value [3, 9]?
A: 11.5% and 11.5 ± 2.61 %

Q: What about the “U (cumulative urinary excretion)” value [3, 9] of the same compound?
A: 25.3% and 25.3 ± 1.62%

Q: And the Kp ([4]; brain, oral, with tariquidar i.v. 7.5 mg/kg, read-out: KP2, Brain)?
A: 0.004

Q: What about the Kp ([4]; brain, oral, with tariquidar p.o. 15 mg/kg, read-out: KP2, Brain) of the same compound?
A: 0.004

Q: And the AUC(0-t) ([4]; brain, po, 1 mg/kg, single, read-out: AUC(0–24h), Brain)?
A: 13.1 ± 2.66 ng·h/mL

Q: What about the AUC(0-t) ([4]; brain, po, 1 mg/kg, with tariquidar i.v. 7.5 mg/kg, read-out: AUC(0–24h), Brain) of the same compound?
A: 31.2 ± 10.9 ng·h/mL

Q: And the AUC(0-t) ([4]; brain, po, 1 mg/kg, with tariquidar p.o. 15 mg/kg, read-out: AUC(0–24h), Brain)?
A: 41.5 ± 14.8 ng·h/mL

Q: What about the Kp ([4]; heart, oral, with tariquidar i.v. 7.5 mg/kg, read-out: KP2, Heart) of the same compound?
A: 0.4 ± 0.02

Q: And the Kp ([4]; heart, oral, with tariquidar p.o. 15 mg/kg, read-out: KP2, Heart)?
A: 0.45 ± 0.09

Q: What about the AUC(0-t) ([4]; heart, po, 1 mg/kg, single, read-out: AUC(0–24h), Heart) of the same compound?
A: 2370 ± 346 ng·h/mL

Q: And the Kp ([4]; heart, po, 1 mg/kg, single, read-out: KP2 (tissue/plasma AUC), Heart)?
A: 0.45 ± 0.04

Q: And the AUC(0-t) ([4]; heart, po, 1 mg/kg, with tariquidar i.v. 7.5 mg/kg, read-out: AUC(0–24h), Heart)?
A: 3060 ± 619 ng·h/mL

Q: What about the AUC(0-t) ([4]; heart, po, 1 mg/kg, with tariquidar p.o. 15 mg/kg, read-out: AUC(0–24h), Heart) of the same compound?
A: 4750 ± 1820 ng·h/mL

Q: What about the AUC(0-t) ([4]; kidney, po, 1 mg/kg, single, read-out: AUC(0–24h), Kidney) of the same compound?
A: 5990 ± 2170 ng·h/mL

Q: What about the AUC(0-t) ([4]; kidney, po, 1 mg/kg, with tariquidar i.v. 7.5 mg/kg, read-out: AUC(0–24h), Kidney) of the same compound?
A: 7870 ± 1570 ng·h/mL

Q: What about the AUC(0-t) ([4]; kidney, po, 1 mg/kg, with tariquidar p.o. 15 mg/kg, read-out: AUC(0–24h), Kidney) of the same compound?
A: 11900 ng·h/mL

Q: And the AUC(0-t) ([4]; liver, po, 1 mg/kg, single, read-out: AUC(0–24h), Liver)?
A: 4870 ± 1050 ng·h/mL

Q: And the AUC(0-t) ([4]; liver, po, 1 mg/kg, with tariquidar i.v. 7.5 mg/kg, read-out: AUC(0–24h), Liver)?
A: 6360 ± 283 ng·h/mL

Q: And the AUC(0-t) ([4]; liver, po, 1 mg/kg, with tariquidar p.o. 15 mg/kg, read-out: AUC(0–24h), Liver)?
A: 9600 ± 1820 ng·h/mL

Q: And the AUC(0-t) ([4]; plasma, po, 1 mg/kg, single, read-out: AUC(0–24h), Plasma)?
A: 5310 ± 798 ng·h/mL
